From ChEMBL document CHEMBL6109055, “Naphtho[1,2-b][1,4]diazepinedione-Based P2X4 Receptor Antagonists from Structure-Activity Relationship Studies toward PET Tracer Development” (J Med Chem, 2025) come the findings set out here.

Each structure is given as a SMILES string.

The nature of data set [1]: In vivo biodistribution in adult female C57Bl/6 mouse assessed as accumulation in liver at about 5 MBq, iv measured after 15 mins by PET imaging analysis. The class given is ADME, organism-based. Conditions: 0.25 h; call rule not given here.
The nature of data set [2]: In vivo biodistribution in adult female C57Bl/6 mouse assessed as accumulation in gall bladder at about 5 MBq, iv measured after 30 mins by PET imaging analysis. It counts as ADME, organism-based. Conditions: 0.5 h.
Data set [3] is described as follows: Stability in mouse serum measured up to 90 mins at 3.1 to 8.7 MBq by analytical radio-HPLC analysis. It counts as ADME, cell-free. The note with it: dose 3.1-8.7 MBq, read-out: Stability.
The nature of data set [4]: Stability in human serum measured up to 90 mins at 3.1 to 8.7 MBq by analytical radio-HPLC analysis. The class given is ADME, cell-free. Conditions: dose 3.1-8.7 MBq, read-out: Stability.
Data set [5] can be described thus: Octanol/PBS partition coefficient, log D of the radiolabeled compound at 420 to 460 kBq at pH 7.4 by gamma-counting analysis. It counts as physicochemical. Conditions: dose 420-460 kBq.
Data set [6] in a line: In vivo biodistribution in adult female C57Bl/6 mouse assessed as accumulation in bladder at 5 MBq, iv measured after 2 to 85 mins by PET imaging analysis. The class given is ADME, organism-based, Urinary bladder. The note with it: time 2-85 min.
A short description of data set [7]: In vivo biodistribution in adult female C57Bl/6 mouse assessed as accumulation in intestine at about 5 MBq, iv measured after 2 to 85 mins by PET imaging analysis. It counts as ADME, organism-based. The note with it: time 2-85 min.
Data set [8] can be described thus: In vivo biodistribution in adult female C57Bl/6 mouse assessed as accumulation in bladder at 5 MBq, iv measured after 15 to 85 mins by PET imaging analysis. The class given is ADME, organism-based, Urinary bladder. Conditions: time 15-85 min.

`Cc1cc([18F])ccc1S(=O)(=O)Nc1ccc(N2C(=O)CC(=O)Nc3c2ccc2ccccc32)cc1`: the Drug uptake entry is reported as “Active” in data set [1], “Active” in data set [2] and “Not_active” in data set [6]. The remaining at […] in data set [3] and in data set [4] was over 99% in each case. In data set [5], the log distribution coefficient (logD) stood at 3.5.

For the compound `Cc1cc([18F])ccc1CS(=O)(=O)Nc1ccc(N2C(=O)CC(=O)Nc3c2ccc2ccccc32)cc1`, the Drug uptake result in data set [7] and in data set [8] was “Active” in each case. Also, the remaining at […] in data set [3] and in data set [4] was over 99% throughout. Also, the pH-dependent lipophilicity (logD) in data set [5] was found to be 3.43.
